Test results reported in patent US10183938B2, “Geminal substituted quinuclidine amide compounds as agonists of α-7 nicotonic acetylcholine receptors” (AXOVANT SCIENCES GMBH, priority 2014, dated 2019).
Structures can show the parent of a compound that is named as a salt.

Each molecule was assayed against human α7 nAChRs transiently expressed in Xenopus laevis oocytes (Homo sapiens (Human), UniProt P36544) (assay: Oocyte electrophysiology screen (TEVC)). Conditions: 0.01 mM test compound, peak current relative to 0.2 mM ACh.
Sequence of human α7 nAChRs transiently expressed in Xenopus laevis oocytes (P36544 23-502 limits assumed): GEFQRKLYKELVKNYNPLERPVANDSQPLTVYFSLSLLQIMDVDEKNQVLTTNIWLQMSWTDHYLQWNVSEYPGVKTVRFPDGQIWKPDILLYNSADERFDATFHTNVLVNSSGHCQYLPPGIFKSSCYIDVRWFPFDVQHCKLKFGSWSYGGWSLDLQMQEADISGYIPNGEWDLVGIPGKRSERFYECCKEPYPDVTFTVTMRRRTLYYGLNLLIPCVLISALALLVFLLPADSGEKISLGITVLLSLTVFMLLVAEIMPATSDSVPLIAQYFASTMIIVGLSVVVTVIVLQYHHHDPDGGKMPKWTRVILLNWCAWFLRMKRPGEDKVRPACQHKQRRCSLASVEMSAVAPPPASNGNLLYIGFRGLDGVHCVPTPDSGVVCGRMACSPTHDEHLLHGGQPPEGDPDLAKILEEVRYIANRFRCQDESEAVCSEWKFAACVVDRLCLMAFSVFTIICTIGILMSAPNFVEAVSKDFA
Type: cell-based
Method: Oocyte Electrophysiology Screen (% ACh @ 10 μM Oocyte)
The Oocyte Electrophysiology Screen studies were performed under contract by HiQScreen Geneva, Switzerland. All experiments were carried out at human α7 nAChRs transiently expressed in Xenopus laevis oocytes using the method of cDNA expression. Currents evoked by acetylcholine or other agonist ligands were recorded using the standard two-electrode voltage-clamp configuration (TEVC). X. laevis oocytes were prepared and injected using standard procedures. Briefly, ovaries were harvested from X. laevis females that were deeply anesthetized and pithed following the animal rights rule from the Geneva canton. A small piece of ovary was isolated for immediate preparation while the remaining part was placed at 4° C. in a sterile Barth solution containing in mM: NaCl 88, KCl 1, NaHCO3 2.4, HEPES 10, MgSO4.7H2O 0.82, Ca(NO3)2.4H2O 0.33, CaCl2.6H2O 0.41, at pH 7.4, and supplemented with 20 μg/mL of kanamycin, 100 unit/mL penicillin and 100 μg/mL streptomycin. […] Cells were held at −80 mV. Data were filtered at 10 Hz, captured at 100 Hz and analyzed using proprietary data acquisition and analysis software running under Matlab (Mathworks Inc.).
Experimental Protocol and Analysis
After establishing a baseline transmembrane current, acetylcholine (ACh) was applied for 5 seconds at a concentration of 0.2 mM to establish a control ACh-evoked current response. Following a wash period of 90 s in OR2 medium (free of ACh), cells were then exposed for 30 s to the test compound applied at 0.01 mM. The same reference ACh test pulse was immediately given at the end of the compound exposure and again after 90 s of recovery in OR2 Medium (free of ACh or test compound). All data were determined in triplicate. The response evoked by the test compound was expressed as a percentage of that evoked by ACh: Response (% ACh)=100×(Itest/IACh) where Itest is the peak inward current measured during exposure to 0.01 mM of test compound and IACh is the peak inward current measured in the presence of ACh.
In the case of `O=C(NC1C2CCN(CC2)C12CC2)c1cc2cccc(Cl)c2s1` (single isomer, unassigned; enantiomer2) [56b, 7-chloro-N-(1′-azaspiro[cyclopropane-1,2′-bicyclo[2.2.2]octan]-3′-yl)benzo[b]thiophene-2-carboxamide-enantiomer2], the “% ACh @ 10 μM Oocyte” value is reported as 0 % ACh.
In the case of `CC1(C)[C@@H](NC(=O)c2cc3cc(F)ccc3s2)C2CCN1CC2` [(S)-11, (S)—N-(2,2-dimethylquinuclidin-3-yl)-5-fluorobenzo[b]thiophene-2-carboxamide hydrochloride], the “% ACh @ 10 μM Oocyte” value is reported as 9 % ACh.
In the case of `Cc1coc2ccc(C(=O)N[C@@H]3C4CCN(CC4)C3(C)C)cc12` [(R)-40, (R)—N-(2,2-dimethylquinuclidin-3-yl)-3-methylbenzofuran-5-carboxamide hydrochloride], the “% ACh @ 10 μM Oocyte” value is reported as 517 % ACh.
In the case of `Cc1ccc2sc(C(=O)N[C@H]3C4CCN(CC4)C3(C)C)cc2c1` [(S)-16, (S)—N-(2,2-dimethylquinuclidin-3-yl)-5-methylbenzo[b]thiophene-2-carboxamide hydrochloride], the “% ACh @ 10 μM Oocyte” value is reported as 2 % ACh.
With `O=C(N[C@H]1C2CCN(CC2)C12CC2)c1cnn2ncccc12` [(S)-80, (S)—N-(1′-azaspiro[cyclopropane-1,2′-bicyclo[2.2.2]octan]-3′-yl)pyrazolo[1,5-b]pyridazine-3-carboxamide hydrochloride] the “% ACh @ 10 μM Oocyte” value was 2 % ACh.
`Cc1nc2cc(C(=O)N[C@@H]3C4CCN(CC4)C3(C)C)ccc2o1` [(R)-32, (R)—N-(2,2-dimethylquinuclidin-3-yl)-2-methylbenzo[d]oxazole-5-carboxamide] was tested, and the “% ACh @ 10 μM Oocyte” value was 61 % ACh.
In the case of `CC1(C)[C@@H](NC(=O)c2cc3ccc(Cl)cc3s2)C2CCN1CC2` [(S)-12, (S)-6-chloro-N-(2,2-dimethylquinuclidin-3-yl)benzo[b]thiophene-2-carboxamide hydrochloride], the “% ACh @ 10 μM Oocyte” value is reported as 3 % ACh.
`CC1(C)[C@@H](NC(=O)c2cc3cccc(C(F)(F)F)c3s2)C2CCN1CC2` [(S)-7, (S)—N-(2,2-dimethylquinuclidin-3-yl)-7-(trifluoromethyl)benzo[b]thiophene-2-carboxamide hydrochloride] was tested, and the “% ACh @ 10 μM Oocyte” value was 2 % ACh.
In the case of `CC1(C)[C@H](NC(=O)c2ccc3c(c2)OCCO3)C2CCN1CC2.Cl` [(R)-215, (R)-N-(2,2-dimethylquinuclidin-3-yl)-2,3-dihydrobenzo[b][1,4]dioxine-6-carboxamide hydrochloride], the “% ACh @ 10 μM Oocyte” value is reported as 86 % ACh.
`Cc1nc2ccc(C(=O)N[C@@H]3C4CCN(CC4)C3(C)C)cc2s1` [(R)-35, (R)—N-(2,2-dimethylquinuclidin-3-yl)-2-methylbenzo[d]thiazole-6-carboxamide hydrochloride] was tested, and the “% ACh @ 10 μM Oocyte” value was 6 % ACh.
In the case of `COc1ccc2sc(C(=O)N[C@H]3C4CCN(CC4)C3(C)C)cc2c1` [(S)-21, (S)—N-(2,2-dimethylquinuclidin-3-yl)-5-methoxybenzo[b]thiophene-2-carboxamide hydrochloride], the “% ACh @ 10 μM Oocyte” value is reported as 1 % ACh.
With `Cn1cnc2cc(C(=O)N[C@@H]3C4CCN(CC4)C3(C)C)ccc21` [(R)-42, (R)—N-(2,2-dimethylquinuclidin-3-yl)-1-methyl-1H-benzo[d]imidazole-5-carboxamide hydrochloride] the “% ACh @ 10 μM Oocyte” value was 0 % ACh.
With `O=C(NC1C2CCN(CC2)C12CC2)c1cc2ccc(C(F)(F)F)cc2s1` (single isomer, unassigned; enantiomer2) [63b, N-(1′-azaspiro[cyclopropane-1,2′-bicyclo[2.2.2]octan]-3′-yl)-6-(trifluoromethyl)benzo[b]thiophene-2-carboxamide-enantiomer2] the “% ACh @ 10 μM Oocyte” value was 3 % ACh.
In the case of `O=C(N[C@H]1C2CCN(CC2)C12CC2)c1nc2ccccc2s1` [(S)-82, (S)—N-(1′-azaspiro[cyclopropane-1,2′-bicyclo[2.2.2]octan]-3′-yl)benzo[d]thiazole-2-carboxamide hydrochloride], the “% ACh @ 10 μM Oocyte” value is reported as 2 % ACh.
In the case of `O=C(N[C@@H]1C2CCN(CC2)C12CC2)c1cnn2ncccc12` [(R)-80, (R)—N-(1′-azaspiro[cyclopropane-1,2′-bicyclo[2.2.2]octan]-3′-yl)pyrazolo[1,5-b]pyridazine-3-carboxamide hydrochloride], the “% ACh @ 10 μM Oocyte” value is reported as 0 % ACh.
`CC1(C)[C@H](NC(=O)c2cc3ccccc3s2)C2CCN1CC2` [(R)-1, (R)—N-(2,2-dimethylquinuclidin-3-yl)benzo[b]thiophene-2-carboxamide hydrochloride] was tested, and the “% ACh @ 10 μM Oocyte” value was 401 % ACh.
`O=C(NC1C2CCN(CC2)C12CC2)c1ccc2ccsc2c1` (single isomer, unassigned; enantiomer2) [58b, N-(1′-azaspiro[cyclopropane-1,2′-bicyclo[2.2.2]octan]-3′-yl)benzo[b]thiophene-6-carboxamide-enantiomer2] was tested, and the “% ACh @ 10 μM Oocyte” value was 5 % ACh.
For `O=C(N[C@@H]1C2CCN(CC2)C12CC2)c1nc2ccccc2s1` [(R)-82, (R)—N-(1′-azaspiro[cyclopropane-1,2′-bicyclo[2.2.2]octan]-3′-yl)benzo[d]thiazole-2-carboxamide hydrochloride], the “% ACh @ 10 μM Oocyte” value was 239 % ACh.
`Nc1ncc2cc(C(=O)N[C@@H]3C4CCN(CC4)C34CC4)sc2n1` [(R)-149, (R)-2-amino-N-(1′-azaspiro[cyclopropane-1,2′-bicyclo[2.2.2]octan]-3′-yl) thieno[2,3-d]pyrimidine-6-carboxamide hydrochloride] was tested, and the “% ACh @ 10 μM Oocyte” value was 195 % ACh.
For `O=C(NC1C2CCN(CC2)C12CC2)c1ccc2occc2c1` (single isomer, unassigned; enantiomer2) [59b, N-(1′-azaspiro[cyclopropane-1,2′-bicyclo[2.2.2]octan]-3′-yl)benzofuran-5-carboxamide-enantiomer2], the “% ACh @ 10 μM Oocyte” value was 27 % ACh.
`Cl.Cn1cnc2ccc(C(=O)N[C@@H]3C4CCN(CC4)C3(C)C)cc21` [(R)-206, (R)-N-(2,2-dimethylquinuclidin-3-yl)-1-methyl-1H-benzo[d]imidazole-6-carboxamide hydrochloride] was tested, and the “% ACh @ 10 μM Oocyte” value was 0 % ACh.
For `O=C(NC1C2CCN(CC2)C12CC2)c1cc2cccc(C(F)(F)F)c2s1` (single isomer, unassigned; enantiomer2) [60b, N-(1′-azaspiro[cyclopropane-1,2′-bicyclo[2.2.2]octan]-3′-yl)-7-(trifluoromethyl)benzo[b]thiophene-2-carboxamide-enantiomer2], the “% ACh @ 10 μM Oocyte” value was 1 % ACh.

Same assay, conditions: 0.01 mM test compound, peak current relative to 0.2 mM ACh; hydrochloride
`Cc1ccc2cc(C(=O)NC3C4CCN(CC4)C34CC4)sc2c1` (single isomer, unassigned; enantiomer2) [68b, 6-methyl-N-(1′-azaspiro[cyclopropane-1,2′-bicyclo[2.2.2]octan]-3′-yl)benzo[b]thiophene-2-carboxamide-enantiomer2 hydrochloride] was tested, and the “% ACh @ 10 μM Oocyte” value was 5 % ACh.
For `CC1(C)C(NC(=O)c2cc3ccccc3s2)C2CCN1CC2` (single isomer, unassigned; enantiomer1) [1a, N-(2,2-dimethylquinuclidin-3-yl)benzo[b]thiophene-2-carboxamide-enantiomer1 hydrochloride], the “% ACh @ 10 μM Oocyte” value was 1470 % ACh.
For `O=C(NC1C2CCN(CC2)C12CC2)c1cc2cc(C(F)(F)F)ccc2s1` (single isomer, unassigned; enantiomer1) [70a, N-(1′-azaspiro[cyclopropane-1,2′-bicyclo[2.2.2]octan]-3′-yl)-5-(trifluoromethyl)benzo[b]thiophene-2-carboxamide-enantiomer1 hydrochloride], the “% ACh @ 10 μM Oocyte” value was 2 % ACh.
In the case of `Nc1ccc2cc(C(=O)NC3C4CCN(CC4)C34CC4)sc2c1` (single isomer, unassigned; enantiomer2) [62b, 6-amino-N-(1′-azaspiro[cyclopropane-1,2′-bicyclo[2.2.2]octan]-3′-yl)benzo[b]thiophene-2-carboxamide-enantiomer2 hydrochloride], the “% ACh @ 10 μM Oocyte” value is reported as 995 % ACh.
`CC1(C)C(NC(=O)c2cc3ccccc3s2)C2CCN1CC2` (single isomer, unassigned; enantiomer2) [1b, N-(2,2-dimethylquinuclidin-3-yl)benzo[b]thiophene-2-carboxamide-enantiomer2 hydrochloride] was tested, and the “% ACh @ 10 μM Oocyte” value was 2 % ACh.
In the case of `O=C(NC1C2CCN(CC2)C12CC2)c1cc2ccc(Cl)cc2s1` (single isomer, unassigned; enantiomer2) [65b, 6-chloro-N-(1′-azaspiro[cyclopropane-1,2′-bicyclo[2.2.2]octan]-3′-yl)benzo[b]thiophene-2-carboxamide-enantiomer2 hydrochloride], the “% ACh @ 10 μM Oocyte” value is reported as 1 % ACh.
In the case of `COc1ccc2sc(C(=O)NC3C4CCN(CC4)C34CC4)cc2c1` (single isomer, unassigned; enantiomer1) [74a, 5-methoxy-N-(1′-azaspiro[cyclopropane-1,2′-bicyclo[2.2.2]octan]-3′-yl)benzo[b]thiophene-2-carboxamide-enantiomer1 hydrochloride], the “% ACh @ 10 μM Oocyte” value is reported as 32 % ACh.
